From US11850220B2 (Augusta University Research Institute, Inc., priority 2020, dated 2023)

Experiments:
COX-1 = COX-1 (Homo sapiens, UniProt P23219); assay: COX-1/2 bio-assay: COX-1; type: biochemical; settings: read-out: IC50 ± SD, COX-1
From the text: (§1) Cyclooxygenases (COX) are the key enzymes capable of the conversion of arachidonic acid to prostaglandins.

COX-2 = target: T1, COX-2 (Homo sapiens, UniProt P35354); assay: COX-1/2 bio-assay: COX-2; type: biochemical; settings: for IC50: read-out: IC50 ± SD, COX-2; for SI(COX-2/COX-1): selectivity index COX-2/COX-1
T1 sequence (P35354 18-604): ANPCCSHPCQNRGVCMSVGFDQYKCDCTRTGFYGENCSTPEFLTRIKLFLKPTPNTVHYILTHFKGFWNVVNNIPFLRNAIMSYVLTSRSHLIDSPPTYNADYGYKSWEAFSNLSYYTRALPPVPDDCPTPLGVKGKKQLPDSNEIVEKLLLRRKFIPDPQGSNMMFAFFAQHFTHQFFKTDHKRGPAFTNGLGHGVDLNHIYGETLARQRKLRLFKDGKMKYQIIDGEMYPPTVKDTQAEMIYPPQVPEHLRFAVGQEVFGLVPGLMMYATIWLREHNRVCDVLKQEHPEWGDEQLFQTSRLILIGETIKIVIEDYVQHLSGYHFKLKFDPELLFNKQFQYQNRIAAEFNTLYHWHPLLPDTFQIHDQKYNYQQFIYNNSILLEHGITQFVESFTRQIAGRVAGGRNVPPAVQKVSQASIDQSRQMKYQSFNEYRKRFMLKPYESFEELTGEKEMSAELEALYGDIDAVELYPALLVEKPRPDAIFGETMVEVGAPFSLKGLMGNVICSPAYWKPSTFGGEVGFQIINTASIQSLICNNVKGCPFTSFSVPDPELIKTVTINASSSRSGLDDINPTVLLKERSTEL
From the text: as §1

[1] = test system: acetic acid-induced abdominal writhing; assay: acetic acid-induced abdominal writhing technique (peripheral analgesic); type: in vivo; settings: for Potency: Relative to indomethacin; for % Inhibition/protection / Writing reflex ± SEM: in vivo; as to % Inhibition/protection: test concentration or dose not given here; as to Writing reflex ± SEM: test concentration or dose not given here
animal gastric mucosa = assay: ulcerogenic liability; type: in vivo; settings: in vivo
[2] = test system: carrageenan-induced paw edema; assay: carrageenan-induced paw edema technique (anti-inflammatory); type: in vivo; settings: for Observed (1/property): 1/(% inhibition of edema thickness at 3 h effect); as to Observed (1/property): test concentration or dose not given here; as to Potency (% Inhibition relative to indomethacin at 3 h effect): test concentration or dose not given here
From the text: Anti-inflammatory properties of the ibuprofen-amino acid conjugate (5a-j) and ibuprofen-amino acid-4-aminophenol conjugates 7a-j were studied by the standard carrageenan-induced paw edema technique (Naumov, R. N. et al., Bioorg. Med. Chem. Lett. 2015, 25, 2314-2320; Tiwari, A. D. et al., Org. Biomol. Chem. 2014, 12, 7238-7249).

hot plate = hot plate technique (central analgesic); type: in vivo; settings: for Potency: Relative to indomethacin at 120 min.
[3] = % inhibition of edema thickness at 3 h effect, Table 7
[4] = anti-inflammatory property (% inhibition of edema at 3 h), Table 8

COX-1, sequence (P23219 24-599): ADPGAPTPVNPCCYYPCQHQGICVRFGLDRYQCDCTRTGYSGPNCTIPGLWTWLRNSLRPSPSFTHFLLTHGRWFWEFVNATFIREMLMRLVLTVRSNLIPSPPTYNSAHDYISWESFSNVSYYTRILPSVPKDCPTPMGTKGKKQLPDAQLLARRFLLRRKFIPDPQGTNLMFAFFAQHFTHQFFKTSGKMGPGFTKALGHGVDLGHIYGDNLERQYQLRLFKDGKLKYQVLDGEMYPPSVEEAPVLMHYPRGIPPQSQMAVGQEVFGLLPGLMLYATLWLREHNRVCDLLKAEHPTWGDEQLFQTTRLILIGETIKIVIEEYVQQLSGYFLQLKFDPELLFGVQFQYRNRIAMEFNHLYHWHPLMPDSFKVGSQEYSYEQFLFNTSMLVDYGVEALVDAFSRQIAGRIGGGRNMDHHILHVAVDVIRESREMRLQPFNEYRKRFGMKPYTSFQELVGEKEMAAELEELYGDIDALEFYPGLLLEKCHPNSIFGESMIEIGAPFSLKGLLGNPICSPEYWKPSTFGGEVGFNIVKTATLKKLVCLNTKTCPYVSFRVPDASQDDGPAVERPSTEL

Row | Compound | Potency [1] | % Inhibition/protection [1] | Writing reflex ± SEM [1] | % Incidence of ulcer divided by 10 (animal gastric mucosa) | Average of ulcer number (animal gastric mucosa) | Average severity of ulcer (animal gastric mucosa) | Number of animals with ulcer (animal gastric mucosa) | Ulcer index (animal gastric mucosa) | Observed (1/property) ([2]; Table 7) | % inhibition of edema ([2]; 1 h) | Mean edema thickness ([2]; 1 h) | % inhibition of edema ([2]; 2 h) | Mean edema thickness ([2]; 2 h) | % inhibition of edema ([2]; 3 h) | Mean edema thickness ([2]; 3 h) | % inhibition of edema ([2]; 4 h) | Mean edema thickness ([2]; 4 h) | % inhibition of edema ([2]; 24 h) | Mean edema thickness ([2]; 24 h) | Observed property [2, 3] | other results
1 | CC(C)Cc1ccc(C(C)C(=O)N[C@H](C(=O)Nc2ccc(O)cc2)C(C)C)cc1 (stereo partly drawn) [Compound 7h, (2S)-N-(4-Hydroxyphenyl)-2-(2-(4-isobutylphenyl)propanamido)-3-methylbutanamide] | 137 | 75.3% | 24.0 ± 0.4 | 0 | 0 | 0 | 0 | 0 | 0.01333 | 11% | 1.09 ± 0.06 mm | 54% | 0.69 ± 0.05 mm | 75% | 0.32 ± 0.03 mm | 48% | 0.65 ± 0.04 mm | 21% | 0.15 ± 0.03 mm | 75% | IC50 (COX-1): 10.4 ± 0.51 µM; IC50 (COX-2): 133 ± 9.4 µM; SI(COX-2/COX-1) (COX-2): 12.8; Observed property [2, 4]: 75%; Potency (% Inhibition relative to indomethacin at 3 h effect) [2]: 94%; % protection (hot plate; After 30 min.): (58.3) %; Latency period ± SEM (hot plate; After 30 min.): 3.83 ± 0.02 s; % protection (hot plate; After 60 min.): (62.3) %; Latency period ± SEM (hot plate; After 60 min.): 3.62 ± 0.03 s; % protection (hot plate; After 90 min.): (58.6) %; Latency period ± SEM (hot plate; After 90 min.): 3.49 ± 0.18 s; % protection (hot plate; After 120 min.): (50.7) %; Latency period ± SEM (hot plate; After 120 min.): 3.30 ± 0.02 s; Potency (hot plate): 90; melting point: 202.2 °C
2 | CC(C)Cc1ccc(C(C)C(=O)N[C@@H](Cc2ccccc2)C(=O)Nc2ccc(O)cc2)cc1 (stereo partly drawn) [Compound 7e, (2S)-N-(4-Hydroxyphenyl)-2-(2-(4-isobutylphenyl)propanamido)-3-phenylpropanamide] | 134 | 73.6% | 25.7 ± 1.0 | 0 | 0 | 0 | 0 | 0 | 0.01333 | 38% | 0.76 ± 0.05 mm | 69% | 0.47 ± 0.03 mm | 75% | 0.32 ± 0.01 mm | 77% | 0.29 ± 0.03 mm | 11% | 0.17 ± 0.03 mm | 75% | IC50 (COX-1): 13.2 ± 0.65 µM; IC50 (COX-2): 69.8 ± 4.93 µM; SI(COX-2/COX-1) (COX-2): 5.3; Observed property [2, 4]: 75%; Potency (% Inhibition relative to indomethacin at 3 h effect) [2]: 94%; % protection (hot plate; After 30 min.): (78.1) %; Latency period ± SEM (hot plate; After 30 min.): 4.31 ± 0.04 s; % protection (hot plate; After 60 min.): (104.9) %; Latency period ± SEM (hot plate; After 60 min.): 4.57 ± 0.03 s; % protection (hot plate; After 90 min.): (136.4) %; Latency period ± SEM (hot plate; After 90 min.): 5.20 ± 0.07 s; % protection (hot plate; After 120 min.): (144.3) %; Latency period ± SEM (hot plate; After 120 min.): 5.35 ± 0.03 s; Potency (hot plate): 255; melting point: 168.7 °C
3 | CC(C)Cc1ccc(C(C)C(=O)N[C@@H](CCC(N)=O)C(=O)Nc2ccc(O)cc2)cc1 (stereo partly drawn) [Compound 7j, (2S)—N1-(4-Hydroxyphenyl)-2-(2-(4-isobutylphenyl)propanamido)pentanediamide] | 34 | 18.8% | 79.0 ± 1.8 | 0 | 0 | 0 | 0 | 0 | 0.01282 | 55% | 0.55 ± 0.04 mm | 71% | 0.44 ± 0.02 mm | 78% | 0.28 ± 0.01 mm | 47% | 0.66 ± 0.03 mm | 32% | 0.13 ± 0.03 mm | 78% | IC50 (COX-1): 8.29 ± 0.41 µM; IC50 (COX-2): 116 ± 8.23 µM; SI(COX-2/COX-1) (COX-2): 14.0; Observed property [2, 4]: 78%; Potency (% Inhibition relative to indomethacin at 3 h effect) [2]: 98%; % protection (hot plate; After 30 min.): (60.7) %; Latency period ± SEM (hot plate; After 30 min.): 3.89 ± 0.03 s; % protection (hot plate; After 60 min.): (64.6) %; Latency period ± SEM (hot plate; After 60 min.): 3.67 ± 0.02 s; % protection (hot plate; After 90 min.): (74.5) %; Latency period ± SEM (hot plate; After 90 min.): 3.84 ± 0.15 s; % protection (hot plate; After 120 min.): (124.7) %; Latency period ± SEM (hot plate; After 120 min.): 4.92 ± 0.07 s; Potency (hot plate): 220
4 | CC[C@H](C)[C@@H](NC(=O)C(C)c1ccc(CC(C)C)cc1)C(=O)Nc1ccc(O)cc1 (stereo partly shown) [Compound 7f] | 155 | 85.3% | 14.3 ± 0.8 | 0 | 0 | 0 | 0 | 0 | 0.01111 | 42% | 0.71 ± 0.01 mm | 48% | 0.79 ± 0.04 mm | 90% | 0.13 ± 0.02 mm | 16% | 1.05 ± 0.05 mm | 42% | 0.11 ± 0.02 mm | 90% | IC50 (COX-1): 4.86 ± 0.24 µM; IC50 (COX-2): 141 ± 11.1 µM; SI(COX-2/COX-1) (COX-2): 29.0; Observed property [2, 4]: 90%; Potency (% Inhibition relative to indomethacin at 3 h effect) [2]: 113%; % protection (hot plate; After 30 min.): (64.5) %; Latency period ± SEM (hot plate; After 30 min.): 3.98 ± 0.06 s; % protection (hot plate; After 60 min.): (74.0) %; Latency period ± SEM (hot plate; After 60 min.): 3.88 ± 0.02 s; % protection (hot plate; After 90 min.): (76.4) %; Latency period ± SEM (hot plate; After 90 min.): 3.88 ± 0.04 s; % protection (hot plate; After 120 min.): (164.4) %; Latency period ± SEM (hot plate; After 120 min.): 5.79 ± 0.04 s; Potency (hot plate): 290; potency, central analgesic properties (hot plate; in vivo): 2.9 folds of indomethacin; melting point: 205 °C
5 | CC(C)Cc1ccc(C(C)C(=O)N[C@@H](CCC(N)=O)C(=O)O)cc1 (stereo partly drawn) [Compound 5j, (2-(4-Isobutylphenyl)propanoyl)-L-glutamine] | 3 | 1.6% | 95.7 ± 2.4 | 0 | 0 | 0 | 0 | 0 | 0.01389 | 25% | 0.92 ± 0.05 mm | 45% | 0.83 ± 0.04 mm | 72% | 0.36 ± 0.02 mm | 8% | 1.15 ± 0.06 mm | 47% | 0.10 ± 0.03 mm | 72% | Observed property [2, 4]: 72%; Potency (% Inhibition relative to indomethacin at 3 h effect) [2]: 90%; % protection (hot plate; After 30 min.): (22.3) %; Latency period ± SEM (hot plate; After 30 min.): 2.96 ± 0.02 s; % protection (hot plate; After 60 min.): (25.1) %; Latency period ± SEM (hot plate; After 60 min.): 2.79 ± 0.03 s; % protection (hot plate; After 90 min.): (45.5) %; Latency period ± SEM (hot plate; After 90 min.): 3.20 ± 0.04 s; % protection (hot plate; After 120 min.): (46.1) %; Latency period ± SEM (hot plate; After 120 min.): 3.20 ± 0.03 s; Potency (hot plate): 81; melting point: 67.4 °C
